Measurements as given in paper PMC6934184, “Selective DNA-PKcs inhibition extends the therapeutic index of localized radiotherapy and chemotherapy” (The Journal of Clinical Investigation, 2019).

Biological target: T1, ACVR1 (ALK2) R206H (Homo sapiens, UniProt Q04771, R206H)
T1 construct: purchased Thermo Fisher Scientific (Life Technologies) SelectScreen
Assay: SelectScreen LanthaScreen
Type: binding
Conditions: read-out: % displacement
In short: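 NU5455 was profiled across the SelectScreen Broad panel of kinase activity and binding assays. Z'LYTE reactions such as CSF1R ran at apparent Km ATP, while the Adapta CAMK1 assay used ATP listed as 10. Values are given as percent.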

T1 sequence (Q04771 21-509 R206H): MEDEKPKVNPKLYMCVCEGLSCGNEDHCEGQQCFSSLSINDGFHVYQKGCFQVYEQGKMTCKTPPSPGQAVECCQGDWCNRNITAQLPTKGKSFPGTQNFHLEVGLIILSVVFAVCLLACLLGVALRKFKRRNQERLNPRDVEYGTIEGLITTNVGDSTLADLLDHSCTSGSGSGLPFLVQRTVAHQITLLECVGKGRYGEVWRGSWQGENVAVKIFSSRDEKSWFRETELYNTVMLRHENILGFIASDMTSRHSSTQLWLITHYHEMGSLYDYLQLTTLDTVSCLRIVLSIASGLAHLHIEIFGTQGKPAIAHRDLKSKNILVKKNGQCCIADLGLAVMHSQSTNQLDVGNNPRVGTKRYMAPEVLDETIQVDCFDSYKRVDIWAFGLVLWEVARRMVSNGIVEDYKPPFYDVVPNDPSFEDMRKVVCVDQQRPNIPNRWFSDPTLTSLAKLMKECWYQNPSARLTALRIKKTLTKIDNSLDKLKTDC

SMILES: CN(C(=O)CN1CCOCC1)c1ccc2sc3c(-c4cccc5c(=O)cc(N6CC7CCC(C6)O7)oc45)cccc3c2c1 [NU5455]
- inhibition at 1 µM: 12.6%
